Each structure is given as a SMILES string. pIC50: −log10 of the molar value.

human DGAT2 (hDGAT2), sequence (Q96PD7 whole entry): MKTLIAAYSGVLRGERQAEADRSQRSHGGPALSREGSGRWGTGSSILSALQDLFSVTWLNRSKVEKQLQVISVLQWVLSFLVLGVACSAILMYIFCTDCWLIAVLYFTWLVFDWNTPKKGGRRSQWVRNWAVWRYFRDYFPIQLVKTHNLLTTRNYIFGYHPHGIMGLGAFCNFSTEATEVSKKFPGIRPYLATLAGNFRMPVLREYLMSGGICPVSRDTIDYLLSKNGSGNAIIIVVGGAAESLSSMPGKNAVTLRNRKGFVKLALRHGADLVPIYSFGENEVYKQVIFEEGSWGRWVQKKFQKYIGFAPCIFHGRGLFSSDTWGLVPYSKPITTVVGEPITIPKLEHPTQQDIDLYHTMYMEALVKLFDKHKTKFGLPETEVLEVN

One assay has as its target human DGAT2 (hDGAT2) (Homo sapiens (Human), UniProt Q96PD7). As to the kind of experiment: DGAT2 enzymatic activity assay (13C18-triolein formation, LC/MS/MS). Format: biochemical. The note with it: hDGAT2 Sf-9 membrane prep, 25 μM diolein, 5 μM 13C oleoyl-CoA; read-out: Human DGAT2 IC50. The protocol: Sf-9 insect cells were maintained in Grace's insect cell culture medium with 10% heated-inactivated fetal bovine serum, 1% Pluronic F-68 and 0.14 μg/ml Kanamycine sulfate at 27° C. in a shaker incubator. After infection with untagged baculovirus expressing human DGAT2 (hDGAT2) at multiplicity of infection (MOI) 3 for 48 hours, cells were harvested. Cell pellets were suspended in buffer containing 10 mM Tris-HCl pH 7.5, 1 mM EDTA, 250 mM sucrose and Complete Protease Inhibitor Cocktail (Sigma Aldrich), and sonicated on ice. Cell debris were removed by centrifugation at 2000×g for 15 minutes. Membrane fractions were isolated by ultracentrifugation (100,000×g), resuspended in the same buffer, and frozen (−80° C.) for later use. The protein concentration was determined with the Pierce™ BCA Protein Assay Kit (Thermo Fisher Scientific). Expression of protein levels was analyzed by immunoblotting with rabbit anti-DGAT2 antibody (Abcam, ab102831) and donkey anti-rabbit IgG H&L Alexa Fluor® 647 (Abcam, ab150075) followed by detection using Typhoon FLA9000 (GE Healthcare).
LC/MS/MS analyses were performed using Thermal Fisher's LX4-TSQ Vantage system. This system consists of an Agilent binary high-performance liquid chromatography (HPLC) pumps and a TSQ Vantage triple quadrupole MS/MS instrument. For each sample, 2 μL samples from the top organic layer of in-plate liquid-liquid extraction were injected onto a Thermo Betabasic C4 column (2.1 mm×20 mm, 5 μm particle size). The samples were then eluted using the following conditions; mobile phase: Isopropanol:acetonitrile/10 mM ammonium formate=50/35/15 (v/v/v), flow rate: 0.8 mL/min, temperature: 25° C. Data was acquired in positive mode using a heated electrospray ionization (HESI) interface. The operational parameters for the TSQ Vantage MS/MS instrument were a spray voltage of 3000 V, capillary temperature of 280° C., vaporizer temperature 400° C., sheath gas 45 arbitrary unit, Aux gas 10 arbitrary units, S-lens 165 and collision gas 1.0 mTorr. […] (SRM) chromatograms of ^13C18-triolein (Q1: 920.8>Q3:621.3) and internal standard ^13C21-triolein (Q1: 923.8>Q3:617.3) were collected for 33 sec. The peak area was integrated by Xcalibur Quan software. The ratio between the ^13C18triolein generated in the reaction and spiked in internal standard ^13C21-triolein was used to generate percentage inhibition and IC50 values. Compound percentage inhibition was calculated by the following formula: Inhibition %=1-[(compound response−low control)/(high control−low control)]×100%. Potent compounds were titrated and IC50 were calculated by 4 parameter sigmoidal curve fitting formula.
DGAT2 activity was determined by measuring the amount of enzymatic product ^13C18-triolein (^13C-1,2,3-Tri(cis-9-octadecenoyl)glycerol) using the membrane prep mentioned above. The assay was carried out in ABgene 384-well assay plates in a final volume of 25 μL at rt. The assay mixture contained the following: assay buffer (100 mM Tris·Cl, pH 7.0, 20 mM MgCl2, 5% ethanol), 25 μM of diolein, 5 μM of ^13C oleoyl-CoA and 8 ng/μL of DGAT2 membrane.
Take `CC(C)n1nc(-c2cccc(OC(F)F)c2)c2ncc(C(=O)NC3(C(C)O)CCOCC3)cc21` (single isomer, unassigned) [Example 73b, 3-(3-(difluoromethoxy)phenyl)-N-(4-(1-hydroxyethyl)tetrahydro-2H-pyran-4-yl)-1-isopropyl-1H-pyrazolo[4,3-b]pyridine-6-carboxamide]: the pIC50 is 7.13. In the case of `CC(C)n1nc(-c2cccc(OC(F)F)c2)c2ncc(C(=O)NC3(CO)CCOC3)cc21` (single isomer, unassigned) [Example 39b, 3-[3-(difluoromethoxy)phenyl]-N-[3-(hydroxymethyl)tetrahydrofuran-3-yl]-1-isopropyl-pyrazolo[4,3-b]pyridine-6-carboxamide], the pIC50 is 7.42.

For `CC(C)n1cc(-c2cccc(OC(F)F)c2)c2ncc(C(=O)NC3(C)CS(=O)(=O)C3)cc21` [Example 37, 3-(3-(difluoromethoxy)phenyl)-1-isopropyl-N-(3-methyl-1,1-dioxidothietan-3-yl)-1H-pyrrolo[3,2-b]pyridine-6-carboxamide], the pIC50 was 7.30. Same read-out and setting: under `C[C@]1(NC(=O)c2cnc3c(-c4cccc(OC(F)F)c4)nn(C4CCCOC4)c3c2)CCS(=O)(=O)C1` (single isomer, unassigned) [Example 62a] stands 7.23; under `CC(O)C(C)n1nc(-c2cccc(OC(F)F)c2)c2ncc(C(=O)NC3(C)CS(=O)(=O)C3)cc21` (single isomer, unassigned) [Example 78a, 3-(3-(difluoromethoxy)phenyl)-1-(3-hydroxybutan-2-yl)-N-(3-methyl-1,1-dioxidothietan-3-yl)-1H-pyrazolo[4,3-b]pyridine-6-carboxamide], 5.76. For `CC(O)C(C)n1nc(-c2cccc(OC(F)F)c2)c2ncc(C(=O)NC3(C)CS(=O)(=O)C3)cc21` (single isomer, unassigned) [Example 78c, 3-(3-(difluoromethoxy)phenyl)-1-(3-hydroxybutan-2-yl)-N-(3-methyl-1,1-dioxidothietan-3-yl)-1H-pyrazolo[4,3-b]pyridine-6-carboxamide], the pIC50 is 6.92. For `CC(O)Cn1nc(-c2cccc(OC(F)F)c2)c2ncc(C(=O)NC3(C)CS(=O)(=O)C3)cc21` (single isomer, unassigned) [Example 68b, 3-(3-(difluoromethoxy)phenyl)-1-(2-hydroxypropyl)-N-(3-methyl-1,1-dioxidothietan-3-yl)-1H-pyrazolo[4,3-b]pyridine-6-carboxamide], the negative logarithm of the IC50 (pIC50) is 6.75. Regarding `CC(C)n1nc(-c2cccc(OC(F)F)c2)c2ncc(C(=O)NC(C)(C)C(C)O)cc21` (single isomer, unassigned) [Example 46a, 3-(3-(difluoromethoxy)phenyl)-N-(3-hydroxy-2-methylbutan-2-yl)-1-isopropyl-1H-pyrazolo[4,3-b]pyridine-6-carboxamide], the pIC50 is 7.82. With `CN1CCC(n2nc(-c3cccc(OC(F)F)c3)c3ncc(C(=O)NC4(C)CS(=O)(=O)C4)cc32)CC1` [Example 134, 3-(3-(Difluoromethoxy)phenyl)-N-(3-methyl-1,1-dioxidothietan-3-yl)-1-(1-methylpiperidin-4-yl)-1H-pyrazolo[4,3-b]pyridine-6-carboxamide], the pIC50 was 7.48. Still for that read-out and setting: in the case of `CCOc1cc(-c2nn(C(C)C)c3cc(C(=O)NC4(C)CS(=O)(=O)C4)cnc23)c(F)cn1` [Example 126, 3-(2-ethoxy-5-fluoropyridin-4-yl)-1-isopropyl-N-(3-methyl-1,1-dioxidothietan-3-yl)-1H-pyrazolo[4,3-b]pyridine-6-carboxamide] it was 7.57; in that of `CC1(NC(=O)c2cnc3c(-c4cccc(OC(F)F)c4)nn([C@@H]4COC[C@H]4O)c3c2)CS(=O)(=O)C1` (single isomer, unassigned) [Example 53a, 3-(3-(difluoromethoxy)phenyl)-1-((trans)-4-hydroxytetrahydrofuran-3-yl)-N-(3-methyl-1,1-dioxidothietan-3-yl)-1H-pyrazolo[4,3-b]pyridine-6-carboxamide], 7.80. Turning to `CC(O)C(C)n1nc(-c2cccc(OC(F)F)c2)c2ncc(C(=O)NC3(C)CS(=O)(=O)C3)cc21` (single isomer, unassigned) [Example 78b, 3-(3-(difluoromethoxy)phenyl)-1-(3-hydroxybutan-2-yl)-N-(3-methyl-1,1-dioxidothietan-3-yl)-1H-pyrazolo[4,3-b]pyridine-6-carboxamide], the negative-log IC50 (pIC50) was 8.36. With `CC(C)n1nc(-c2cccc(OC(F)F)c2)c2ncc(C(=O)NC3(C(C)O)CCOC3)cc21` (single isomer, unassigned) [Example 50a, 3-(3-(difluoromethoxy)phenyl)-N-(3-(1-hydroxyethyl)tetrahydrofuran-3-yl)-1-isopropyl-1H-pyrazolo[4,3-b]pyridine-6-carboxamide], the pIC50 is 6.88. As for `C[C@]1(NC(=O)c2cnc3c(-c4cccc(OC(F)F)c4)cn(-c4ccc(F)cc4)c3n2)CCS(=O)(=O)C1` [Example 24, (S)-7-(3-(difluoromethoxy)phenyl)-5-(4-fluorophenyl)-N-(3-methyl-1,1-dioxidotetrahydrothiophen-3-yl)-5H-pyrrolo[2,3-b]pyrazine-3-carboxamide], the pIC50 is 7.30. On the same count and under the same terms, in the case of `CC1(NC(=O)c2cnc3c(-c4cccc(OC(F)F)c4)nn(C4CCOCC4F)c3c2)CS(=O)(=O)C1` (single isomer, unassigned) [Example 75b, 3-(3-(difluoromethoxy)phenyl)-1-(3-fluorotetrahydro-2H-pyran-4-yl)-N-(3-methyl-1,1-dioxidothietan-3-yl)-1H-pyrazolo[4,3-b]pyridine-6-carboxamide] it was 8.05; in that of `C[C@]1(NC(=O)c2cnc3c(-c4cccc(OC(F)F)c4)nn(C4CCCOC4)c3c2)CCS(=O)(=O)C1` (single isomer, unassigned) [Example 62b], 6.94; in that of `CC(C)n1nc(-c2cccc(OC(F)F)c2)c2ncc(C(=O)NC(CO)C(F)(F)F)cc21` (racemic) [Example 52, 3-(3-(difluoromethoxy)phenyl)-1-isopropyl-N-(1,1,1-trifluoro-3-hydroxypropan-2-yl)-1H-pyrazolo[4,3-b]pyridine-6-carboxamide], 7.39. Turning to `C[C@]1(NC(=O)c2cnc3c(-c4cccc(OC(F)F)c4)nn(-c4ccc(F)cc4)c3c2)CCS(=O)(=O)C1` [Example 1, (S)-3-(3-(difluoromethoxy)phenyl)-1-(4-fluorophenyl)-N-(3-methyl-1,1-dioxidotetrahydrothiophen-3-yl)-1H-pyrazolo[4,3-b]pyridine-6-carboxamide], the negative-log IC50 (pIC50) is 9.10. As for `CC(C)n1nc(-c2cccc(OC(F)F)c2)c2ncc(C(=O)NC3(C(C)O)CCOCC3)cc21` (single isomer, unassigned) [Example 73a, 3-(3-(difluoromethoxy)phenyl)-N-(4-(1-hydroxyethyl)tetrahydro-2H-pyran-4-yl)-1-isopropyl-1H-pyrazolo[4,3-b]pyridine-6-carboxamide], the pIC50 was 6.92.

The assay is the same for the next values; noted with them: table head without 'Human'; same membrane assay; read-out: DGAT2 IC50.
Take `CC(n1nc(-c2cc(OC(F)F)ccc2F)c2ncc(C(=O)NC3(C)CS(=O)(=O)C3)cc21)C(C)(C)O` (single isomer, unassigned) [Example 131a, 3-(5-(difluoromethoxy)-2-fluorophenyl)-1-(3-hydroxy-3-methylbutan-2-yl)-N-(3-methyl-1,1-dioxidothietan-3-yl)-1H-pyrazolo[4,3-b]pyridine-6-carboxamide]: the pIC50 was 7.96.

On to `CC(n1nc(-c2cc(OC(F)(F)F)ccc2F)c2ncc(C(=O)NC3(C)CS(=O)(=O)C3)cc21)C(C)(C)O` (single isomer, unassigned) [Example 132a, 3-(2-fluoro-5-(trifluoromethoxy)phenyl)-1-(3-hydroxy-3-methylbutan-2-yl)-N-(3-methyl-1,1-dioxidothietan-3-yl)-1H-pyrazolo[4,3-b]pyridine-6-carboxamide], for which the pIC50 is 6.64.

One may read the pIC50 as the IC50 on a negative log10 scale, so that one unit is a factor of ten.

The values above are taken from patent US11787810B2, “Diacylglyceride O-acyltransferase 2 inhibitors” (Merck Sharp & Dohme Corp., priority 2020, dated 2023).
